1 molecule from patent US20260137662A1, “CD11B AGONISTS FOR TREATMENT OF AUTOIMMUNE DISEASE” (Rush University Medical Center, priority 2022, published 2026) can be followed below.

This assay deals with NFkB pathway. As to the kind of experiment: Gene expression in RAW 264.7 myeloid cells with NFkB inhibitor. It is filed as cell-based, murine. As to conditions: presence of NFkB inhibitor; LPS-treated cells, 8 hours. As to the method:
FIG. 6A illustrates gene expression of PLAUR in myeloid cells treated with NFkB inhibitor BMS 345541 and then subsequently treated for 8 hours with LA 1(20 uM), LPS (12.5, 25, 50, 100, or 250 ng/ml), or LPS and LA1 co-treatment (L+L).
FIG. 6B illustrates gene expression of NLRP3 in myeloid cells treated with NFkB inhibitor BMS 345541 and then subsequently treated for 8 hours with LA 1(20 uM), LPS (12.5, 25, 50, 100, or 250 ng/ml), or LPS and LA1 co-treatment (L+L).
FIG. 6C illustrates gene expression of and IL-6 in myeloid cells treated with NFkB inhibitor BMS 345541 and then subsequently treated for 8 hours with LA 1(20 uM), LPS (12.5, 25, 50, 100, or 250 ng/ml), or LPS and LA1 co-treatment (L+L).
In order to determine potential molecular mechanisms resulting in uPAR expression, the association between uPAR/suPAR and other inflammatory cytokines and the NFkB pathway were investigated. uPAR expression levels in RAW 264.7 myeloid cells were evaluated in the absence or presence of a known NFkB inhibitor, BMS 345541.

With `Cc1ccc2nc(NCCN)c3ncc(C)n3c2c1` [BMS 345541], the “expression levels of IL-6” value is listed as “reduced”, the “expression levels of NLRP3” value is given as “reduced” and the “relative gene expression of PLAUR (uPAR)” value is given as “reduced relative gene expression”.
